From patent US20250154142A1, “THIADIAZOLE-SUBSTITUTED COMPOUND, PHARMACEUTICAL COMPOSITIONS THEREOF, AND APPLICATIONS THEREOF” (Shanghai Yingli Pharmaceutical Co., Ltd., priority 2023, published 2025) come the findings set out here.

Each structure is given as a SMILES string.

For one data set, the target named is T1, PARG (389-976) (Homo sapiens, UniProt Q86W56).
T1 construct: 5 μL of PARG (389-976) (manufactured by Chempartner Chemical Co., Ltd.); purchased Chempartner Chemical Co., Ltd
The data set can be described thus: PARG enzyme inhibition assay (TR-FRET). It is filed as biochemical. Particulars: Bio PARylated His-TEV-PARP1 substrate. On the procedure:
PARG in vitro assays were conducted in standard 384-well plates in a total volume of 15 μL. 5 μL of PARG (389-976) (manufactured by Chempartner Chemical Co., Ltd.) in buffer (50 mM Tris-HCL 7.5, 30 mM KCl, 1 mM EDTA, 3 mM DTT, tween-20 0.01%, BSA 0.025%) was added at a final concentration of 1.5 pM to the 384-well plates containing the compounds to be tested, which was incubated for 30 min at room temperature. To the above mixture was added 5 μL Bio PARylated His-TEV-PARP1 (2-1014) substrate (manufactured by Chempartner Chemical Co., Ltd.) at a final concentration of 12 nM, after addition, the resulting mixture was incubated for 30 minutes at room temperature. Then to the mixture was added detection reagent (5 μL) which was buffered with 50 mM Tris-HCL 7.5, 30 mM KCl, 1 mM EDTA, 3 mM DTT, tween-20 0.01%, BSA 0.025%, and consisted of 3 μM of compound PDD00017273 and 9 nM Mab anti-6HIS XL665 (Cisbio: 61HISXLA) and 0.9 nM streptavidin affinity terbium cryptate (Cisbio: 610SATLA), all at 3× working concentrations (final concentrations of […], 3 nM and 0.3 nM, respectively). After 120 min incubation in the dark at room temperature, TR-FRET signals were measured at Ex 340 and Em 665 and Em 615. The ratio for each well was calculated as Em 665/Em 615 and the compound inhibition rate was calculated based on the obtained data.

A short description of data set [1]: Pharmacokinetic studies in mice after intravenous and oral administration. The data set is classed as in vivo. Conditions: mouse, male CD-1 mice, plasma. The protocol:
After intravenous and oral administration to male C57BL/6J mice or male CD-1 mice, plasma samples were collected through the orbital venous plexus at 8-9 time points (e.g., 5 min, 15 min, 30 min, 1 h, 2 h, 4 h, 7 h, 24 h or 5 min, 15 min, 30 min, 1 h, 2 h, 4 h, 6 h, 8 h, 24 h). The collected blood samples were transferred to microcentrifuge tubes containing EDTA-K2 anticoagulant, and the […] were centrifuged for 5 min at 4° C. and 4000 g. The supernatants were stored in a refrigerator at −75° C.±15° C. The concentrations of the compounds in the plasma at the different time points were detected by LC-MS/MS and the relevant pharmacokinetic parameters were calculated using the WinNonlin software

T1 sequence (Q86W56 389-976): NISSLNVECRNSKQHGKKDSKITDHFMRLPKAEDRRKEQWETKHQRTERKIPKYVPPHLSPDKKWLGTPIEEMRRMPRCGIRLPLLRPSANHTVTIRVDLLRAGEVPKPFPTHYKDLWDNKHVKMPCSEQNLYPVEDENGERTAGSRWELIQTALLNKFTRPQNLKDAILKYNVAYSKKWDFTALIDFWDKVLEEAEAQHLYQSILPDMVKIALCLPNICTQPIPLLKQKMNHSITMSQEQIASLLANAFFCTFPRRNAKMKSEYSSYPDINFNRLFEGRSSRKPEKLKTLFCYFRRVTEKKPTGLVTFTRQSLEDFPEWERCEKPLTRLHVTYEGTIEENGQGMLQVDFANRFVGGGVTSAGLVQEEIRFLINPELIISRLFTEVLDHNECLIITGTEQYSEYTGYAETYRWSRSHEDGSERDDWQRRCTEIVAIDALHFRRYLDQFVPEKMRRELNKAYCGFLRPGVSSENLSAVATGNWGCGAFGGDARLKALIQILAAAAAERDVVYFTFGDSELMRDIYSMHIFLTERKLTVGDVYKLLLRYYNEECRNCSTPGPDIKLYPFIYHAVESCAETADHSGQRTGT

`C[C@H]1CN(c2c(F)c(S(=O)(=O)NC3(C)CC3)cc3c2cnn3-c2nnc(C(F)F)s2)C[C@H](C)N1` [Compound 5] yielded an IC50 against PARG (389-976) (class symbol) below 2 nM. In data set [1] (intravenous 5 mg/kg), this compound yielded an AUC(0-inf) of 1.62 µg·h/mL, an AUC(0-t) of 1.6 µg·h/mL and a clearance of 3.1 L/h/kg. Also, in data set [1] (oral administration 10 mg/kg), the AUC(0-inf) was 2 µg·h/mL, the AUC(0-t) turned out to be 1.97 µg·h/mL and the Cmax amounted to 0.172 µg/mL.

Regarding `C[C@H]1CN(c2cc(S(=O)(=O)NC3(C)CC3)cc3c2cnn3-c2nnc(C(F)(F)F)s2)C[C@H](C)N1` [Compound 1], the IC50 at PARG (389-976) (class symbol) was below 2 nM. This compound also had an IC50 against PARG (389-976) (numeric value) of 0.2 nM. For the same compound, in data set [1] (intravenous 5 mg/kg), the AUC(0-inf) was 3.7 µg·h/mL, the AUC(0-t) came to 2.54 µg·h/mL and the clearance is 1.35 L/h/kg. In data set [1] (oral administration 10 mg/kg), the AUC(0-inf) was determined as 2.98 µg·h/mL, the AUC(0-t) was 2.61 µg·h/mL and the highest level (Cmax) was 0.175 µg/mL.

Regarding `C[C@H]1CN(c2c(F)c(S(=O)(=O)NC3(C)CC3)cc3c2cnn3-c2nnc(C(F)(F)F)s2)C[C@H](C)N1` [Compound 4], the IC50 against PARG (389-976) (class symbol) is below 2 nM. In addition, in data set [1] (intravenous 5 mg/kg), the AUC(0-inf) is 2.35 µg·h/mL, the AUC(0-t) came out at 1.99 µg·h/mL and the clearance is 2.14 L/h/kg. In data set [1] (oral administration 10 mg/kg), this compound yielded an AUC(0-inf) of 3.97 µg·h/mL, an AUC(0-t) of 3.26 µg·h/mL and a Cmax of 0.198 µg/mL.

On to `C[C@H]1CN(c2c(F)c(S(=O)(=O)NC3(C#N)CC3)cc3c2cnn3-c2nnc(C(F)(F)F)s2)C[C@H](C)N1` [Compound 3], for which, in data set [1] (intravenous 5 mg/kg), the AUC(0-inf) worked out at 2.42 µg·h/mL, the AUC(0-t) turned out to be 2.41 µg·h/mL and the clearance was determined as 2.09 L/h/kg. Moreover, in data set [1] (oral administration 10 mg/kg), the AUC(0-inf) was 4.08 µg·h/mL, the AUC(0-t) is 4.07 µg·h/mL and the Cmax is 0.513 µg/mL.

On PARG (389-976) (class symbol), `C[C@H]1CN(c2cc(S(=O)(=O)NC3(C)CC3)cc3c2cnn3-c2nnc(C(F)F)s2)C[C@H](C)N1` [Compound 1′, reference compound] displayed an IC50 below 2 nM. The same compound yielded an IC50 on PARG (389-976) (numeric value) of 0.21 nM. In data set [1] (intravenous 5 mg/kg), this compound showed an AUC(0-inf) of 0.939 µg·h/mL, an AUC(0-t) of 0.905 µg·h/mL and a clearance of 5.37 L/h/kg. In data set [1] (oral administration 10 mg/kg), this compound gave an AUC(0-inf) of 0.929 µg·h/mL, an AUC(0-t) of 0.725 µg·h/mL and a Cmax of 0.0988 µg/mL.

For `C[C@H]1CN(c2cc(S(=O)(=O)NC3(C#N)CC3)cc3c2cnn3-c2nnc(C(F)(F)F)s2)C[C@H](C)N1` [Compound 2], the IC50 on PARG (389-976) (class symbol) is below 2 nM; against PARG (389-976) (numeric value), 0.62 nM.
